Experimental data from US6737383B1, “Herbicidal oxadiazolidines” (priority 1999, dated 2004).

Key:
[1] = tested on: corn; assay: Test B pre/postemergence corn; assay type: in vivo, Zea mays
Outline: (§1)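 Test chemicals in a non-phytotoxic solvent mixture with surfactant were sprayed preemergence onto planted seeds and postemergence onto plants 2 to 18 cm tall (1- to 4-leaf stage). After twelve to sixteen days in a greenhouse, injury was visually rated against untreated controls from 0 (no effect) to 10 (complete control).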

[2] = tested on: wheat; assay: Test B pre/postemergence wheat; assay type: in vivo, Triticum aestivum
Outline: as §1

[3] = tested on: blackgrass; assay: Test B pre/postemergence blackgrass; assay type: in vivo, Alopecurus myosuroides
Outline: as §1

[4] = tested on: crabgrass; assay: Test B pre/postemergence crabgrass; assay type: in vivo, Digitaria sanguinalis
Outline: as §1

[5] = tested on: rape; assay: Test B pre/postemergence rape; assay type: in vivo, Brassica napus
Outline: as §1

[6] = tested on: cocklebur; assay: Test B pre/postemergence cocklebur; assay type: in vivo, Xanthium strumarium
Outline: as §1

[7] = tested on: surinam grass; assay: Test B pre/postemergence surinam grass; assay type: in vivo, Brachiaria decumbens
Outline: as §1

[8] = tested on: wild oat; assay: Test B pre/postemergence wild oat; assay type: in vivo, Avena fatua
Outline: as §1

[9] = tested on: smallflower flatsedge; assay: Test B flood test smallflower flatsedge; assay type: in vivo, Cyperus difformis
Outline: (§2)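 Each value is a visual injury score relative to controls, with 10 meaning complete control and 0 no effect. Evaluation took place twelve to sixteen days after the 2-leaf-stage plants were treated and kept in the greenhouse.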

[10] = tested on: purple nutsedge; assay: Test B pre/postemergence purple nutsedge; assay type: in vivo, Cyperus rotundus
Outline: as §1

[11] = tested on: rice; assay: Test B flood test rice; assay type: in vivo, Oryza sativa
Outline: as §2

[12] = tested on: bamyardgrass; assay: Test B flood test barnyardgrass; assay type: in vivo, Echinochloa crus-galli
Outline: as §2

[13] = tested on: pigweed; assay: Test B pre/postemergence pigweed; assay type: in vivo, Amaranthus retroflexus
Outline: as §1

[14] = tested on: giant foxtail; assay: Test B pre/postemergence giant foxtail; assay type: in vivo, Setaria faberii
Outline: as §1

[15] = tested on: velvetleaf; assay: Test B pre/postemergence velvetleaf; assay type: in vivo, Abutilon theophrasti
Outline: as §1

[16] = tested on: duck salad; assay: Test B flood test duck salad; assay type: in vivo, Heteranthera limosa
Outline: as §2

[17] = tested on: sugar beet; assay: Test B pre/postemergence sugar beet; assay type: in vivo, Beta vulgaris
Outline: as §1

[18] = tested on: soybean; assay: Test B pre/postemergence soybean; assay type: in vivo, Glycine max
Outline: as §1

[19] = tested on: morningglory; assay: Test B pre/postemergence morningglory; assay type: in vivo, Ipomoea hederacea
Outline: as §1

[20] = Postemergence, Rate 62 g/ha, scale 0 to 10, 0 is no effect, 10 is complete control
[21] = Postemergence, Rate 125 g/ha, scale of 0 to 10 where 0 is no effect and 10 is complete control
[22] = Postemergence, Rate 250 g/ha, scale of 0 to 10, 0 is no effect, 10 is complete control
[23] = Preemergence, Rate 62 g/ha, scale of 0 to 10 where 0 is no effect and 10 is complete control
[24] = Preemergence, Rate 125 g/ha, scale of 0 to 10 where 0 is no effect and 10 is complete control
[25] = Preemergence, Rate 500 g/ha, scale of 0 to 10 where 0 is no effect and 10 is complete control
[26] = Rate 500 g/ha, Postemergence, scale 0 to 10, 0 is no effect, 10 is complete control
[27] = Preemergence, Rate 250 g/ha, scale 0 to 10 (0 no effect, 10 complete control)
[28] = Rate 62 g/ha, flood test species, Pre-emergence, visual evaluation after twelve to sixteen days
[29] = Rate 125 g/ha, under heading Pre-emergence, flood test species, visual evaluation after twelve to sixteen days
[30] = Rate 250 g/ha, Pre-emergence (flood test species), scale 0 to 10, 0 is no effect, 10 is complete control
[31] = Rate 500 g/ha, Pre-emergence section of Table B, 0 to 10 scale (0 no effect, 10 complete control)

C#CC(C)n1c(=O)on(C(=O)N(c2ccc(F)cc2F)C(C)C)c1=O (racemic) [Compound 657]
Plant response rating, Corn [1, 20]: 1
Corn plant response rating [1, 21]: 1
Corn plant response rating [1, 22]: 1
Corn plant response rating [1, 23]: 0
Corn plant response rating [1, 24]: 1
Plant response rating, Corn [1, 25]: 8
Corn plant response rating [1, 26]: 1
Plant response rating, Wheat [2, 20]: 0
Wheat plant response rating [2, 21]: 0
Wheat plant response rating [2, 23]: 0
Wheat plant response rating [2, 24]: 0
Plant response rating, Wheat [2, 27]: 0
Plant response rating, Wheat [2, 25]: 7
Wheat plant response rating [2, 26]: 5
Plant response rating, Blackgrass [3, 20]: 6
Blackgrass plant response rating [3, 21]: 8
Blackgrass plant response rating [3, 22]: 8
Blackgrass plant response rating [3, 23]: 5
Blackgrass plant response rating [3, 24]: 9
Plant response rating, Blackgrass [3, 27]: 7
Plant response rating, Blackgrass [3, 25]: 9
Blackgrass plant response rating [3, 26]: 8
Plant response rating, Crabgrass [4, 20]: 3
Crabgrass plant response rating [4, 21]: 8
Crabgrass plant response rating [4, 22]: 9
Crabgrass plant response rating [4, 23]: 3
Crabgrass plant response rating [4, 24]: 10
Plant response rating, Crabgrass [4, 27]: 9
Plant response rating, Crabgrass [4, 25]: 9
Crabgrass plant response rating [4, 26]: 9
Plant response rating, Rape [5, 20]: 0
Rape plant response rating [5, 21]: 2
Rape plant response rating [5, 23]: 3
Rape plant response rating [5, 24]: 3
Plant response rating, Rape [5, 27]: 10
Plant response rating, Rape [5, 25]: 10
Rape plant response rating [5, 26]: 3
Plant response rating, Cocklebur [6, 20]: 0
Cocklebur plant response rating [6, 21]: 2
Cocklebur plant response rating [6, 22]: 4
Cocklebur plant response rating [6, 23]: 0
Cocklebur plant response rating [6, 24]: 0
Plant response rating, Cocklebur [6, 27]: 2
Plant response rating, Cocklebur [6, 25]: 2
Cocklebur plant response rating [6, 26]: 5
Plant response rating, B. signalgrass [7, 20]: 0
Plant response rating, B. signalgrass [7, 21]: 2
B. signalgrass plant response rating [7, 22]: 4
B. signalgrass plant response rating [7, 23]: 2
B. signalgrass plant response rating [7, 24]: 8
Plant response rating, B. signalgrass [7, 27]: 9
Plant response rating, B. signalgrass [7, 25]: 10
B. signalgrass plant response rating [7, 26]: 6
Plant response rating, Wild oats [8, 20]: 1
Wild oats plant response rating [8, 21]: 2
Wild oats plant response rating [8, 23]: 3
Wild oats plant response rating [8, 24]: 6
Plant response rating, Wild oats [8, 27]: 8
Plant response rating, Wild oats [8, 25]: 8
Wild oats plant response rating [8, 26]: 2
Plant response rating, S. Flatsedge (0 to 10 scale, 0 is no effect, 10 is complete control) [9, 28]: 0
S. Flatsedge plant response rating (0 to 10 scale, 0 is no effect, 10 is complete control) [9, 29]: 0
S. Flatsedge plant response rating [9, 30]: 0
S. Flatsedge plant response rating [9, 31]: 0
Nutsedge plant response rating [10, 21]: 3
Nutsedge plant response rating [10, 23]: 0
Nutsedge plant response rating [10, 24]: 0
Plant response rating, Nutsedge [10, 27]: 5
Plant response rating, Nutsedge [10, 25]: 6
Plant response rating, Rice (0 to 10 scale, 0 is no effect, 10 is complete control) [11, 28]: 0
Rice plant response rating (0 to 10 scale, 0 is no effect, 10 is complete control) [11, 29]: 0
Rice plant response rating [11, 30]: 0
Rice plant response rating [11, 31]: 0
Plant response rating, Barnyardgrass (0 to 10 scale, 0 is no effect, 10 is complete control) [12, 28]: 0
Barnyardgrass plant response rating (0 to 10 scale, 0 is no effect, 10 is complete control) [12, 29]: 0
Barnyardgrass plant response rating [12, 30]: 0
Barnyardgrass plant response rating [12, 31]: 0
Plant response rating, Redroot pigweed [13, 20]: 0
Redroot pigweed plant response rating [13, 21]: 2
Redroot pigweed plant response rating [13, 23]: 7
Redroot pigweed plant response rating [13, 24]: 10
Plant response rating, Redroot pigweed [13, 27]: 10
Plant response rating, Redroot pigweed [13, 25]: 10
Redroot pigweed plant response rating [13, 26]: 7
Plant response rating, Giant foxtail [14, 20]: 5
Giant foxtail plant response rating [14, 21]: 8
Giant foxtail plant response rating [14, 22]: 7
Giant foxtail plant response rating [14, 23]: 10
Giant foxtail plant response rating [14, 24]: 10
Plant response rating, Giant foxtail [14, 27]: 9
Plant response rating, Giant foxtail [14, 25]: 9
Giant foxtail plant response rating [14, 26]: 8
Plant response rating, Velvetleaf [15, 20]: 2
Velvetleaf plant response rating [15, 21]: 3
Velvetleaf plant response rating [15, 23]: 3
Velvetleaf plant response rating [15, 24]: 4
Plant response rating, Velvetleaf [15, 27]: 8
Plant response rating, Velvetleaf [15, 25]: 10
Velvetleaf plant response rating [15, 26]: 4
Plant response rating, Ducksalad (0 to 10 scale, 0 is no effect, 10 is complete control) [16, 28]: 0
Ducksalad plant response rating (0 to 10 scale, 0 is no effect, 10 is complete control) [16, 29]: 0
Ducksalad plant response rating [16, 30]: 0
Ducksalad plant response rating [16, 31]: 0
Plant response rating, Sugarbeets [17, 20]: 0
Sugarbeets plant response rating [17, 21]: 0
Sugarbeets plant response rating [17, 23]: 7
Sugarbeets plant response rating [17, 24]: 7
Plant response rating, Sugarbeets [17, 27]: 10
Plant response rating, Sugarbeets [17, 25]: 9
Sugarbeets plant response rating [17, 26]: 3
Plant response rating, Soybean [18, 20]: 1
Soybean plant response rating [18, 21]: 1
Soybean plant response rating [18, 23]: 0
Soybean plant response rating [18, 24]: 0
Plant response rating, Soybean [18, 25]: 3
Plant response rating, Morningglory [19, 20]: 2
Morningglory plant response rating [19, 21]: 5
Morningglory plant response rating [19, 22]: 5
Morningglory plant response rating [19, 23]: 1
Morningglory plant response rating [19, 24]: 1
Plant response rating, Morningglory [19, 27]: 4
Plant response rating, Morningglory [19, 25]: 6
Morningglory plant response rating [19, 26]: 9
